# Experimental data as given in PMC10611578, “Aβ1-6A2V(D) peptide, effective on Aβ aggregation, inhibits tau misfolding and protects the brain after traumatic brain injury” (Molecular Psychiatry, 2023).
# Square brackets hold non-standard residues; d marks the D form. Peptide text beside a SMILES is read from it.
# Tests used:
# [1] = tested on: misfolded toxic tau in P301L mouse brain homogenate; C. elegans; assay type: in vivo, Caenorhabditis elegans (Bristol N2)
# Method: Bristol N2 nematodes were obtained from the Caenorhabditis elegans Genetic Center (CGC, University of Minnesota, Minneapolis, MN, USA) and propagated at 20 °C on solid Nematode Growth Medium (NGM) seeded with E. coli OP50 (CGC) for food. We used the bleaching technique to prepare age-synchronized animals. C. elegans at the first larval stage were then transferred to fresh NGM plates and grown at 20 °C. At the L3-L4 larval stage, nematodes were collected with M9 buffer, centrifuged, and washed twice with 10 mM PBS (pH 7.4) to eliminate bacteria. Worms were incubated for 2 h at room temperature with orbital shaking, in the absence of E. coli, with brain homogenates from Non-tg and P301L mice (30 µg protein/100 worms/100 µL 10 mM PBS, pH 7.4) in the presence or absence of 50 µM Aβ1-6A2V(D), 50 µM TAT, or 0.1–200 µM Aβ1-6A2V-TAT(D). Control worms were treated with 10 mM PBS, pH 7.4 (Vehicle), 50 µM Aβ1-6A2V (D), 50 µM Aβ1-6A2V-TAT(D) or 50 µM TAT (100 worms/100 µL). Pericontusional tissue homogenates from young WT TBI mice 12 months post-injury or aged-matched sham mice were administered to worms (30 µg protein/100 worms/100 µL) in the absence or presence of 50 µM Aβ1-6A2V-TAT(D). Pericontusional tissue homogenates from 3xTg-AD TBI mice, as well as pericontusional tissues from aged WT TBI, previously treated or not with intranasal 50 mg/kg b.w. […] Homogenates from naive or sham mice were administered to worms as controls for 3xTg-AD and aged WT TBI mice, respectively ((30 µg protein/100 worms/100 µL 10 mM PBS, pH 7.4). As an additional negative control, 10 mM PBS, pH 7.4 (100 worms/100 µL) was administered to nematodes. Worms were then plated onto NGM plates seeded with OP50 E. coli, grown at 20 °C, and transferred every day to new NGM plates seeded with E. coli to avoid overlapping generations. The locomotor activity of nematodes was scored 7 days after the treatment in blind conditions and expressed as the body bends/min [26]. […]
# [2] = tested on: abnormal tau in WT TBI mouse brain homogenate; C. elegans; assay: Locomotor activity of C. elegans exposed to brain homogenate of WT TBI mice 12 months post-injury; assay type: in vivo, Caenorhabditis elegans (Bristol N2); conditions: 50 µM peptide, pericontusional tissue 12 months post-injury, 30 µg protein/100 worms/100 µL, 7 days after treatment; N = 30
# Method: Bristol N2 nematodes were obtained from the Caenorhabditis elegans Genetic Center (CGC, University of Minnesota, Minneapolis, MN, USA) and propagated at 20 °C on solid Nematode Growth Medium (NGM) seeded with E. coli OP50 (CGC) for food. We used the bleaching technique to prepare age-synchronized animals. C. elegans at the first larval stage were then transferred to fresh NGM plates and grown at 20 °C. At the L3-L4 larval stage, nematodes were collected with M9 buffer, centrifuged, and washed twice with 10 mM PBS (pH 7.4) to eliminate bacteria. […] Homogenates from naive or sham mice were administered to worms as controls for 3xTg-AD and aged WT TBI mice, respectively ((30 µg protein/100 worms/100 µL 10 mM PBS, pH 7.4). As an additional negative control, 10 mM PBS, pH 7.4 (100 worms/100 µL) was administered to nematodes. Worms were then plated onto NGM plates seeded with OP50 E. coli, grown at 20 °C, and transferred every day to new NGM plates seeded with E. coli to avoid overlapping generations. The locomotor activity of nematodes was scored 7 days after the treatment in blind conditions and expressed as the body bends/min [26]. […]
# [3] = tested on: insoluble tau (P301L mouse brain homogenate); assay: Detergent insolubility assay of tau in P301L brain lysate; assay type: biochemical, human tau with P301L mutation, JNPL3 mice; conditions: 50 µM, 2 h at 25 °C, PBS pH 7.4; mean ± SD, N = 4-5
# [4] = tested on: tau (P301L mouse brain homogenate), proteinase K; assay: Proteolysis of tau in P301L brain homogenate; assay type: biochemical, human tau with P301L mutation, JNPL3 mice; conditions: 50 µM Aβ1-6A2V-TAT(D), P301L brain homogenate 30 µg protein/100 µL, 30 min at 37 °C with proteinase K (2.5–10 µg/ml)
# C. elegans = conditions: C. elegans; ref [18]; cited from earlier work
smiles,measurement,setting,value
CC(C)[C@@H](NC(=O)[C@H](N)CC(=O)O)C(=O)N[C@H](CCC(=O)O)C(=O)N[C@H](Cc1ccccc1)C(=O)N[C@H](CCCNC(=N)N)C(=O)N[C@H](Cc1c[nH]cn1)C(=O)NCC(=O)NCC(=O)NCC(=O)NCC(=O)NCC(=O)N[C@H](CCCNC(=N)N)C(=O)N[C@H](CCCCN)C(=O)N[C@H](CCCCN)C(=O)N[C@H](CCCNC(=N)N)C(=O)N[C@H](CCCNC(=N)N)C(=O)N[C@H](CCC(N)=O)C(=O)N[C@H](CCCNC(=N)N)C(=O)N[C@H](CCCNC(=N)N)C(=O)N[C@H](CCCNC(=N)N)C(=O)O [Aβ1-6A2V-TAT(D)] (H-[dD][dV][dE][dF][dR][dH]GGGGG[dR][dK][dK][dR][dR][dQ][dR][dR][dR]-OH; N-terminus assumed),Dose dependence of the protection of worms from P301L brain homogenate,"[1]; 0-200 µM peptide, body bends 7 days after treatment",The effect was dose-dependent
same,Protection of worms from toxicity of P301L brain homogenate,"[1]; 30 µg protein/100 worms/100 µL, body bends 7 days after treatment, 50 µM peptide",protected worms from the toxicity caused by P301L brain homogenates
same,IC50,"[1]; 0.1–200 µM peptide, 30 µg protein/100 worms/100 µL, 2 h exposure at room temperature, PBS pH 7.4, body bends 7 days after treatment, three independent experiments (N = 30), read-out: IC50 for protection of worms from P301L brain homogenate toxicity",25.6 µM
same,Reversal of toxic effect of WT TBI brain homogenate in C. elegans,[2],completely reverted
same,Fraction of insoluble tau in P301L brain homogenate,[3],without affecting the fraction of insoluble tau
same,Susceptibility of tau to degradation by proteases,[4],"increased the susceptibility of tau to degradation by proteases, and this was particularly evident in the presence of proteinase K"
same,Passage through the worm's membrane,C. elegans,"only in the presence of the TAT sequence, Aβ1-6A2V(D) can pass through the worm’s membrane"
